Results on five compounds are retold here after US20250179092A1, “PYRIDO[1,2-A]PYRIMIDIN-4-ONE DERIVATIVES” (Hoffmann-La Roche Inc., priority 2022, published 2025).

The test system of the experiment is mutant HTT protein (mHTT). Put plainly: Homogeneous Time Resolved Fluorescence (HTRF) assay for HTT lowering. It counts as cell-based. The conditions noted are these: reduction of mHTT in Huntington patient human cells (GENEAe020-A cell line), 48 hours incubation, mean from three replicates. The procedure: Homogeneous Time Resolved Fluorescence for HTT Lowering
The HTRF assay was adapted from Weiss et al. (Analytical Biochemistry Volume 395, Issue 1, 1 Dec. 2009, Pages 8-15 and Analytical Biochemistry Volume 410, 2011, Pages 304-306) to cells from GENEAe020-A cell line (https.//hpscreg.eu/cell-line/GENEAe020-A).
Compounds were tested for the effect of mutant HTT levels in Huntington patient human cells (GENEAe020-A cell line) using Homogeneous Time Resolved Fluorescence (HTRF) directed towards mutant HTT protein (mHTT). The GENEAe020-A cell line was derived by Genea Biocells from human blastocysts of HD donors. After assessing viability, cells were plated into 384 well collagen coated plates in growth media. Once cells adhered, media was removed and test compounds dissolved in DMSO were diluted with buffer solution and added to the adherent cells. Controls included experiments with no cells, DMSO with no compound, and Hsp90 inhibitor control. Cells were incubated with compounds and controls for 48 hours. Then, the cells were lysed and transferred to an assay plate containing HTRF labeled monoclonal antibodies developed by Paul Patterson (Ko et al., Brain Research Bulletin, Volume 56, Numbers 3 and 4, 2001, Pages 319-329) which recognize specific areas of the HTT protein. The terbium labeled “donor” antibody (2B7) binds to the N-terminus of the HTT protein and the Alexa488 labeled “acceptor” antibody (MW1) is specific for the polyglutamine region of the protein. Binding of the acceptor labeled antibody is more efficient for the extended polyglutamine repeats of mutant HTT protein which translates into a signal boost which enables the specific measurement of mutant HTT protein level. The HTRF donor and acceptor detection reagents were incubated with the cell lysate and the ratio between the signals of the two fluorophores is indicative of the relative quantities of mHTT.
`Cc1cn2nc(-c3cc(=O)n4cc(C5CCNC6(CC6)C5)ccc4n3)cc(C(F)(F)F)c2n1` (racemic) [Example 3, rac-7-(4-azaspiro[2.5]octan-7-yl)-2-[2-methyl-8-(trifluoromethyl)imidazo[1,2-b]pyridazin-6-yl]pyrido[1,2-a]pyrimidin-4-one] yielded a concentration for a half-maximal effect (EC50) of 0.04 µM. That is a double-digit nanomolar value.

For `Cc1cn2nc(-c3cc(=O)n4cc(C5CCNC6(CC6)C5)ccc4n3)cc(C)c2n1` (racemic) [Example 1, rac-7-(4-azaspiro[2.5]octan-7-yl)-2-(2,8-dimethylimidazo[1,2-b]pyridazin-6-yl)pyrido[1,2-a]pyrimidin-4-one], the EC50 worked out at 0.031 µM.

The compound `Cc1nc2c(C)cc(-c3cc(=O)n4cc(C5CCNC6(CC6)C5)ccc4n3)nc2o1` (racemic) [Example 4, rac-7-(4-azaspiro[2.5]octan-7-yl)-2-(2,7-dimethyloxazolo[5,4-b]pyridin-5-yl)pyrido[1,2-a]pyrimidin-4-one] had an EC50 of 0.049 µM.

For the compound `COc1cc(-c2cc(=O)n3cc(C4CCNC5(CC5)C4)ccc3n2)nn2cc(C)nc12` (racemic) [Example 2, rac-7-(4-azaspiro[2.5]octan-7-yl)-2-(8-methoxy-2-methyl-imidazo[1,2-b]pyridazin-6-yl)pyrido[1,2-a]pyrimidin-4-one], the EC50 was found to be 0.021 µM.

In turn, `O=c1cc(-c2ccc3nc(Cl)cn3n2)nc2ccc(C3CCNC4(CC4)C3)cn12` (racemic) [Example 5, rac-7-(4-azaspiro[2.5]octan-7-yl)-2-(2-chloroimidazo[1,2-b]pyridazin-6-yl)pyrido[1,2-a]pyrimidin-4-one] displayed an EC50 of 0.259 µM.
